Source: patent US4689346A, “Therapeutic 1-(acylamino)-naphthalene-4-sulphonic acid derivatives” (Laboratorio Fides, S.A., priority 1982, dated 1987)
Like-named read-outs stand apart in the source and are kept apart here.

Legend:
[1] = tested on: vascular permeability produced by histamine; test: Capillary permeability, Lefebre's method (vascular permeability produced by histamine in rats); type: in vivo; settings: 0.100 g/kg, subcutaneous
Method: The effect on the capillary permeability is determined by means of Lefebre's method, which is based on measuring, at the time of appearance of a coloration, the vascular permeability produced by histamine in rats that have been injected with the product under investigation. Ethamsylate is used as a standard, and the results obtained are as follows: […]

[2] = tested on: capillary resistance; test: Capillary resistance, modified technique based on that of Lavollay (time to first central petechiae under vacuum, scorbutic diet); type: in vivo; settings: 0.175 g/kg, oral, guinea-pigs, four weeks
Method: The effect on the capillary resistance is determined by means of a modified technique based on that of Lavollay. An increasingly powerful vacuum is applied to the skin, and the time that elapses before the first central petechiae appear is taken as a measure of the capillary resistance. Three batches of guinea-pigs are used for each product tested, one batch being a normal batch and the two other batches being subjected to a scorbutic diet, one of the latter batches having received the product under investigation from the start of the trial. An initial basal reading and other weekly readings are taken for four weeks. Ethamsylate is used as a standard.

[3] = tested on: mean bleeding (clotting) time measured in a rabbit ear; test: Hemostatic activity: mean bleeding (clotting) time in a rabbit ear, technique of Roskam and Pauwen; type: in vivo; settings: i.v.
Method: The hemostatic activity is determined by means of a quantitative study of the mean bleeding (clotting) time measured in a rabbit ear by the technique described by Roskam and Pauwen.
Ethamsylate was used as a standard, and the results obtained were as follows: […]

[4] = tested on: fibrin plates; test: Antifibrinolytic activity in vitro by means of fibrin plates, modified and standardized method of Astrup and Mullertz; type: biochemical; settings: AMCHA as standard (= 1)
Method: The antifibrinolytic activity is evaluated "in vitro" by means of fibrin plates according to the modified and standardized method of Astrup and Mullertz.
The antifibrinolytic activity of the test solution is calculated by interpolating the lysis response in a dose/response curve obtained with reference solutions (graduated dilutions of a standard enzyme). AMCHA was used as a standard antifibrinolytic compound.

[5] = Acute toxicity, LD50 in mice; type: in vivo; settings: mouse, in vivo
Method: (§1) The LD50 in mice is determined for the endovenous, intraperitoneal and oral routes.

[6] = tested on: mice; test: Acute toxicity, LD50 in mice; type: in vivo; settings: for Acute toxicity, LD50, I.v. route: i.v. (endovenous)
Method: as §1

SMILES | Capillary permeability, % Effect [1] [%] | Capillary resistance, % Effect [2] [%] | Hemostatic activity, % Effect ([3]; 10 mg/kg) [%] | Hemostatic activity, % Effect ([3]; 100 mg/kg) [%] | Antifibrinolytic activity, Weight capacity [4] | Antifibrinolytic activity, Relative capacity [4] | LD50 ([5]; iv, i.v. (endovenous), read-out: Acute toxicity, LD50, I.v. route) [mg/kg] | Acute toxicity, LD50, I.v. route [6] [g/kg] | LD50 ([5]; ip, read-out: Acute toxicity, LD50, I.p. route) [mg/kg] | LD50 ([5]; po, read-out: Acute toxicity, LD50, Oral route) [mg/kg] | Acute toxicity, LD50, I.p. route [6] [g/kg] | Acute toxicity, LD50, Oral route [6] [g/kg] | Hemostatic activity, % Effect ([3]; 25 mg/kg) [%]
NC[C@H]1CC[C@H](C(=O)O)CC1 [AMCHA, trans-4-(aminomethyl)-cyclohexanecarboxylic acid, reference compound] | -2 | 20.08 | 22.5 | 26.5 | 1 |  |  |  |  |  |  |  | 
O=S(=O)(O)c1cc(O)ccc1O [Ethamsylate, reference compound] | 26.33 | 14.18 | 22.11 |  | 0.28 | 0.47 | 800 |  |  |  |  |  | 
CC(=O)Oc1cc(S(=O)(=O)O)c2ccccc2c1N(C(C)=O)C(C)=O [Example 1, potassium N,N,O-triacetyl-1-amino-2-naphthol-4-sulphonate] | 19 | 23.6 | 18.2 | 23 | 0.91 | 2.06 |  | 0.653 | 3560 | > 7000 |  |  | 
CC(=O)Oc1cc(S(=O)(=O)O)c2ccccc2c1N(C(C)=O)C(C)=O [Example 2, morpholine N,N,O-triacetyl-1-amino-2-naphthol-4-sulphonate] | 29 | 23.95 | 24.7 | 13 | 0.59 | 1.67 |  | 1.53 |  |  | 4.04 | > 7 | 
CC(=O)Oc1cc(S(=O)(=O)O)c2ccccc2c1N(C(C)=O)C(C)=O [Example 4, sodium N,N,O-triacetyl-1-amino-2-naphthol-4-sulphonate] |  | 17.9 | 29.7 | 29.8 | 1.21 | 2.61 |  | 3.51 |  |  | 5.26 | > 7 | 
CC(=O)Nc1c(OC(C)=O)cc(S(=O)(=O)O)c2ccccc12 [Example 5, sodium N,O-diacetyl-1-amino-2-naphthol-4-sulphonate] |  | 26 |  |  | 0.55 | 1.19 |  |  |  |  |  |  | 10.6
CC(=O)Oc1cc(S(=O)(=O)O)c2ccccc2c1N(C(C)=O)C(C)=O [Example 11, AMCHA N,N,O-triacetyl-1-amino-2-naphthol-4-sulphonate] | 14 | 22.6 | 20 | 32 | 1.19 | 3.36 |  |  |  |  |  |  | 
